Source: PubChem BioAssay AID2060907 (Molecular Pharmacology Branch, DTP, NCI, 2025)

Tested on: 388556-164-R-J1-PDC complex spheroid viability
Assay: Anticancer human tumor 388556-164-R-J1-PDC patient-derived colon adenocarcinoma cell line growth inhibition [RAS]
Conditions: for IC50: curve of first compound; for viability, T/C: stronger effect = lower value
Summary of the method: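 Agents were tested in combination matrices in half-log decrements from a top concentration at or near clinical Cmax (10 microM if undetermined). Targets were multi-cell spheroids of tumour lines plus HUVEC and MSC stromal cells.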

[1] = second compound 0.00316 µM, first compound 0.0316 µM
[2] = second compound 0.00316 µM, first compound 0.1 µM
[3] = second compound 0.00316 µM, first compound 0.316 µM
[4] = second compound 0.00316 µM, first compound 1 µM
[5] = second compound 0.01 µM, first compound 0.0316 µM
[6] = second compound 0.01 µM, first compound 0.1 µM
[7] = second compound 0.01 µM, first compound 0.316 µM
[8] = second compound 0.01 µM, first compound 1 µM
[9] = second compound 0.0316 µM, first compound 0.0316 µM
[10] = second compound 0.0316 µM, first compound 0.1 µM
[11] = second compound 0.0316 µM, first compound 0.316 µM
[12] = second compound 0.0316 µM, first compound 1 µM
[13] = second compound 0.1 µM, first compound 0.0316 µM
[14] = second compound 0.1 µM, first compound 0.1 µM
[15] = second compound 0.1 µM, first compound 0.316 µM
[16] = second compound 0.1 µM, first compound 1 µM
[17] = second compound 0.316 µM, first compound 0.0316 µM
[18] = second compound 0.316 µM, first compound 0.1 µM
[19] = second compound 0.316 µM, first compound 0.316 µM
[20] = second compound 0.316 µM, first compound 1 µM
[21] = second compound 1 µM, first compound 0.0316 µM
[22] = second compound 1 µM, first compound 0.1 µM
[23] = second compound 1 µM, first compound 0.316 µM
[24] = second compound 1 µM, first compound 1 µM
[25] = second compound 0.00316 µM, first compound 0.000949 µM
[26] = second compound 0.00316 µM, first compound 0.003 µM
[27] = second compound 0.00316 µM, first compound 0.00949 µM
[28] = second compound 0.00316 µM, first compound 0.03 µM
[29] = second compound 0.00316 µM, first compound 0.0949 µM
[30] = second compound 0.00316 µM, first compound 0.3 µM
[31] = second compound 0.01 µM, first compound 0.000949 µM
[32] = second compound 0.01 µM, first compound 0.003 µM
[33] = second compound 0.01 µM, first compound 0.00949 µM
[34] = second compound 0.01 µM, first compound 0.03 µM
[35] = second compound 0.01 µM, first compound 0.0949 µM
[36] = second compound 0.01 µM, first compound 0.3 µM
[37] = second compound 0.0316 µM, first compound 0.000949 µM
[38] = second compound 0.0316 µM, first compound 0.003 µM
[39] = second compound 0.0316 µM, first compound 0.00949 µM
[40] = second compound 0.0316 µM, first compound 0.03 µM
[41] = second compound 0.0316 µM, first compound 0.0949 µM
[42] = second compound 0.0316 µM, first compound 0.3 µM
[43] = second compound 0.1 µM, first compound 0.000949 µM
[44] = second compound 0.1 µM, first compound 0.003 µM
[45] = second compound 0.1 µM, first compound 0.00949 µM
[46] = second compound 0.1 µM, first compound 0.03 µM
[47] = second compound 0.1 µM, first compound 0.0949 µM
[48] = second compound 0.1 µM, first compound 0.3 µM
[49] = second compound 0.316 µM, first compound 0.000949 µM
[50] = second compound 0.316 µM, first compound 0.003 µM
[51] = second compound 0.316 µM, first compound 0.00949 µM
[52] = second compound 0.316 µM, first compound 0.03 µM
[53] = second compound 0.316 µM, first compound 0.0949 µM
[54] = second compound 0.316 µM, first compound 0.3 µM
[55] = second compound 1 µM, first compound 0.000949 µM
[56] = second compound 1 µM, first compound 0.003 µM
[57] = second compound 1 µM, first compound 0.00949 µM
[58] = second compound 1 µM, first compound 0.03 µM
[59] = second compound 1 µM, first compound 0.0949 µM
[60] = second compound 1 µM, first compound 0.3 µM
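Note: spheroids exposed to compound for 7 days before readout.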
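Throughout, for viability, T/C: 100% = DMSO vehicle control luminescence.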

CC(=O)OC12COC1CC(O)C1(C)C(=O)C(O)C3=C(C)C(OC(=O)C(O)C(NC(=O)OC(C)(C)C)c4ccccc4)CC(O)(C(OC(=O)c4ccccc4)C21)C3(C)C (stereo not drawn) + C=CC(=O)N1CCN(c2nc(OCC3CCCN3C)nc3c(F)c(-c4nc(N)cc(C)c4C(F)(F)F)c(Cl)cc23)C(C)C1
IC50 (second compound 0.00316 µM): > 10000 nM
IC50 (second compound 0.01 µM): > 10000 nM
IC50 (second compound 0.0316 µM): > 10000 nM
IC50 (second compound 0.1 µM): > 10000 nM
IC50 (second compound 0.316 µM): > 10000 nM
IC50 (second compound 1 µM): > 10000 nM
viability, T/C [1]: 88.1%
viability, T/C [2]: 80.7%
viability, T/C [3]: 77%
viability, T/C [4]: 75.7%
viability, T/C (second compound 0.00316 µM, first compound 3.16 µM): 74.6%
viability, T/C (second compound 0.00316 µM, first compound 10 µM): 71.2%
viability, T/C [5]: 82.8%
viability, T/C [6]: 78.8%
viability, T/C [7]: 70.5%
viability, T/C [8]: 80.3%
viability, T/C (second compound 0.01 µM, first compound 3.16 µM): 79.4%
viability, T/C (second compound 0.01 µM, first compound 10 µM): 71.8%
viability, T/C [9]: 84.4%
viability, T/C [10]: 83.4%
viability, T/C [11]: 84.7%
viability, T/C [12]: 76.9%
viability, T/C (second compound 0.0316 µM, first compound 3.16 µM): 76%
viability, T/C (second compound 0.0316 µM, first compound 10 µM): 71.3%
viability, T/C [13]: 78.3%
viability, T/C [14]: 69.5%
viability, T/C [15]: 72.4%
viability, T/C [16]: 74%
viability, T/C (second compound 0.1 µM, first compound 3.16 µM): 78.4%
viability, T/C (second compound 0.1 µM, first compound 10 µM): 73.2%
viability, T/C [17]: 78.6%
viability, T/C [18]: 81.4%
viability, T/C [19]: 79.1%
viability, T/C [20]: 74.5%
viability, T/C (second compound 0.316 µM, first compound 3.16 µM): 72.7%
viability, T/C (second compound 0.316 µM, first compound 10 µM): 76.6%
viability, T/C [21]: 87.6%
viability, T/C [22]: 79.3%
viability, T/C [23]: 74.9%
viability, T/C [24]: 82.8%
viability, T/C (second compound 1 µM, first compound 3.16 µM): 76%
viability, T/C (second compound 1 µM, first compound 10 µM): 70.5%

CC1(C)CCC(Nc2ncc(C(F)(F)F)c(-c3c[nH]c4c(P(C)(C)=O)c(C#N)ccc34)n2)CN1 (stereo not drawn) + C=CC(=O)N1CCN(c2nc(OCC3CCCN3C)nc3c(F)c(-c4nc(N)cc(C)c4C(F)(F)F)c(Cl)cc23)C(C)C1
IC50 (second compound 0.00316 µM): > 300 nM
IC50 (second compound 0.01 µM): > 300 nM
IC50 (second compound 0.0316 µM): > 300 nM
IC50 (second compound 0.1 µM): > 300 nM
IC50 (second compound 0.316 µM): > 300 nM
IC50 (second compound 1 µM): > 300 nM
viability, T/C [25]: 102%
viability, T/C [26]: 101%
viability, T/C [27]: 97%
viability, T/C [28]: 85%
viability, T/C [29]: 95.5%
viability, T/C [30]: 88.1%
viability, T/C [31]: 101%
viability, T/C [32]: 95.7%
viability, T/C [33]: 93.7%
viability, T/C [34]: 99.7%
viability, T/C [35]: 89.2%
viability, T/C [36]: 87.5%
viability, T/C [37]: 102%
viability, T/C [38]: 100%
viability, T/C [39]: 89.8%
viability, T/C [40]: 103%
viability, T/C [41]: 97.8%
viability, T/C [42]: 96.2%
viability, T/C [43]: 98.4%
viability, T/C [44]: 99.8%
viability, T/C [45]: 96.8%
viability, T/C [46]: 84.7%
viability, T/C [47]: 99.6%
viability, T/C [48]: 87.8%
viability, T/C [49]: 110%
viability, T/C [50]: 97.6%
viability, T/C [51]: 102%
viability, T/C [52]: 95.7%
viability, T/C [53]: 94.1%
viability, T/C [54]: 92.4%
viability, T/C [55]: 91.1%
viability, T/C [56]: 105%
viability, T/C [57]: 105%
viability, T/C [58]: 104%
viability, T/C [59]: 94.9%
viability, T/C [60]: 85%

CCc1c2c(nc3ccc(O)cc13)-c1cc3c(c(=O)n1C2)COC(=O)[C@]3(O)CC + C=CC(=O)N1CCN(c2nc(OCC3CCCN3C)nc3c(F)c(-c4nc(N)cc(C)c4C(F)(F)F)c(Cl)cc23)C(C)C1
IC50 (second compound 0.00316 µM): 98.4 nM
IC50 (second compound 0.01 µM): 119 nM
IC50 (second compound 0.0316 µM): 86.1 nM
IC50 (second compound 0.1 µM): 74.8 nM
IC50 (second compound 0.316 µM): 97.2 nM
IC50 (second compound 1 µM): 96.3 nM
viability, T/C [25]: 103%
viability, T/C [26]: 97.2%
viability, T/C [27]: 78%
viability, T/C [28]: 67.3%
viability, T/C [29]: 53.7%
viability, T/C [30]: 29.9%
viability, T/C [31]: 110%
viability, T/C [32]: 95.5%
viability, T/C [33]: 81.4%
viability, T/C [34]: 72%
viability, T/C [35]: 58.3%
viability, T/C [36]: 31.9%
viability, T/C [37]: 99.9%
viability, T/C [38]: 98.8%
viability, T/C [39]: 80.2%
viability, T/C [40]: 65.2%
viability, T/C [41]: 51.4%
viability, T/C [42]: 23.3%
viability, T/C [43]: 102%
viability, T/C [44]: 93.3%
viability, T/C [45]: 74.4%
viability, T/C [46]: 61.3%
viability, T/C [47]: 51%
viability, T/C [48]: 27.2%
viability, T/C [49]: 106%
viability, T/C [50]: 92.7%
viability, T/C [51]: 82.4%
viability, T/C [52]: 67%
viability, T/C [53]: 50.5%
viability, T/C [54]: 32.7%
viability, T/C [55]: 107%
viability, T/C [56]: 103%
viability, T/C [57]: 75.8%
viability, T/C [58]: 68.1%
viability, T/C [59]: 55.2%
viability, T/C [60]: 28.8%

Nc1ccn(C2OC(CO)C(O)C2(F)F)c(=O)n1 (stereo not drawn) + C=CC(=O)N1CCN(c2nc(OCC3CCCN3C)nc3c(F)c(-c4nc(N)cc(C)c4C(F)(F)F)c(Cl)cc23)C(C)C1
IC50 (second compound 0.00316 µM): > 1000 nM
IC50 (second compound 0.01 µM): > 1000 nM
IC50 (second compound 0.0316 µM): > 1000 nM
IC50 (second compound 0.1 µM): > 1000 nM
IC50 (second compound 0.316 µM): > 1000 nM
IC50 (second compound 1 µM): > 1000 nM
viability, T/C (second compound 0.00316 µM, first compound 0.00316 µM): 106%
viability, T/C (second compound 0.00316 µM, first compound 0.01 µM): 90.6%
viability, T/C [1]: 82.7%
viability, T/C [2]: 79.4%
viability, T/C [3]: 60.9%
viability, T/C [4]: 75.8%
viability, T/C (second compound 0.01 µM, first compound 0.00316 µM): 94.3%
viability, T/C (second compound 0.01 µM, first compound 0.01 µM): 89.6%
viability, T/C [5]: 76.3%
viability, T/C [6]: 79.3%
viability, T/C [7]: 70%
viability, T/C [8]: 68.3%
viability, T/C (second compound 0.0316 µM, first compound 0.00316 µM): 104%
viability, T/C (second compound 0.0316 µM, first compound 0.01 µM): 87.1%
viability, T/C [9]: 78.2%
viability, T/C [10]: 71.6%
viability, T/C [11]: 76.9%
viability, T/C [12]: 68.4%
viability, T/C (second compound 0.1 µM, first compound 0.00316 µM): 87.4%
viability, T/C (second compound 0.1 µM, first compound 0.01 µM): 85.3%
viability, T/C [13]: 74%
viability, T/C [14]: 65.6%
viability, T/C [15]: 73.8%
viability, T/C [16]: 67.1%
viability, T/C (second compound 0.316 µM, first compound 0.00316 µM): 92.8%
viability, T/C (second compound 0.316 µM, first compound 0.01 µM): 95.9%
viability, T/C [17]: 75.5%
viability, T/C [18]: 74.8%
viability, T/C [19]: 72.1%
viability, T/C [20]: 67.3%
viability, T/C (second compound 1 µM, first compound 0.00316 µM): 97.2%
viability, T/C (second compound 1 µM, first compound 0.01 µM): 82.7%
viability, T/C [21]: 80.2%
viability, T/C [22]: 76.2%
viability, T/C [23]: 72%
viability, T/C [24]: 68.9%
